Experimental data: patent US10450260B2, “NO- and H2S-releasing compounds” (RESEARCH FOUNDATION OF THE CITY UNIVERSITY OF NEW YORK, priority 2011, dated 2019)
Entries after “also recorded” stand apart in the source; their conditions may differ.

How the values were obtained:
[1] = tested on: MCF-7 (ER+) breast cancer cell xenograft; assay: MCF-7 xenograft in athymic nude mice; type: in vivo, mouse
Excerpt: (§1) Male athymic nude (NU/NU) mice, age 5 weeks, were purchased from Charles River Laboratories, Inc., (Wilmington, Mass.) and were housed according to institutional and NIH guidelines.
(§2) Human colon (SW480), Breast (MCF-7, MDA-MB-231), and pancreas (MIA PaCa2) cancer cells (2×10^6) suspended in Matrigel (BD Biosciences, San Jose, Calif.) 50% v/v were inoculated subcutaneously in the right flanks of each mouse (10 mice per group) using a 1-mL syringe and 22-gauge needles. After 10 days the animals from each implanted cell line were randomly divided into 2 groups (N=5/group) and gavaged daily with either vehicle (1% methylcelloluse) or NOSH-naproxen (100 mg/kg) or NOSH (100 mg/kg), the ADT-OH-butyl nitrate compound that releases H2S and NO, in the case of colon cancer xenografts; or NOSH-aspirin (100 mg/kg body weight) in the breast and pancreatic cancers groups. The tumor size was measured every other day using electronic calipers, the tumor volumes were calculated using the following formula: length×width^2/2. The weights of the mice were also recorded every 3 days. Twenty-seven (27) to thirty (30) days post inoculation, the mice were sacrificed, the tumors collected, weighed, and photographed.

HT-29 colon cancer cells = assay: Cell proliferation, PCNA expression; type: cell-based, human; conditions: 24 hours
Description: Growth inhibition was measured using a colorimetric MTT assay kit (Roche, Indianapolis, Ind.). Proliferation (PCNA) was assessed using an ELISA kit from Calbiochem, (La Jolla, Calif.). Cell cycle phase distributions and apoptosis of control and treated cells were determined as previously described. All methods are described in Chattopadhyay et al., Biochemical Pharmacology, 2012, 83(6), 715-722.

COX-2 = assay: Western blot of COX-2 in paw exudates; type: in vivo, rat; conditions: NOSH-1 at 2 doses one hour before carrageenan
Description: Exudates (oedema fluid) and some tissue were homogenized in lysis buffer (0.1% Triton X-100, 50 μM pepstatin, 0.2 mM leupeptin, 1 μg/mL aprotinin, 10 mg/ml phenylmethylsulfonyl fluoride, 50 mM Tris, and 10 mM EDTA). Samples were then centrifuged, and the protein concentration of the supernatant was determined by colorimetric assay (Bio-Rad, Hercules, Calif.). Protein (30 μg) was separated on a 10% polyacrylamide gel and then transferred to a nitrocellulose membrane (Bio-Rad, Hercules, Calif.). Proteins were probed with monoclonal mouse antibody against COX-1 and COX-2 (1:500; Cayman Chemical, Ann Arbor, Mich.). The membrane was then incubated with a goat anti-mouse IgG secondary antibody conjugated to horseradish peroxidase (Santacruz Biotechnology, Santa Cruz, Calif.). A chemiluminescence reagent (Amersham Pittsburg, Pa.) was added to visualize the labeling according to the manufacturer's instructions.

[2] = tested on: MDA-MB-231 (ER−) breast cancer cell xenograft; assay: MDA-MB-231 xenograft in athymic nude mice; type: in vivo, mouse
Excerpt: as §1, §2

HT-29 cells = assay: LDH release assay; type: cell-based, human
Description: For determination of lactate dehydrogenase (LDH) activity, HT-29 cells (1×10^5 cells/well) were incubated in 96-well plates with different concentrations of NOSH-1. After incubation for 2, 4, 8, 12 and 24 h, LDH activity in the supernatant was assessed using the LDH Cytotoxicity Assay Kit (Cayman Chemical Ann Arbor, Mich.), according to the manufacturer's instructions. Cytotoxicity was calculated as a percentage based on the LDH activity released from cells that had been treated with NOSH-1 compared with LDH activity from cultures incubated with Triton X-100. The % of LDH release was determined using the formula (E−C)/(T−C)×100, where E is the experimental absorbance of cell cultures, C is the control absorbance of cell-free culture medium, and T is the absorbance corresponding to the maximal (100%) LDH release of Triton-lysed cells.^1

[3] = 100 mg/kg daily, day 27, vs control

How did the mean tumor volume ([1]; 100 mg/kg daily gavage, end of study, control 935±93) turn out when O=C(CCCO[N+](=O)[O-])Oc1ccccc1C(=O)Oc1ccc(-c2cc(=S)ss2)cc1 [NOSH-1, 4-(3-thioxo-3H-1,2-dithiol-5-yl)phenyl 2-((4-(nitrooxy)butanoyl)oxy)benzoate] was run?
Its mean tumor volume is 48±9 mm^3.

What about the “reduction of tumor mass” value [1, 3] of the same compound?
Its value is 55%.

And the average tumor mass ([1]; 100 mg/kg daily, day 27, control 0.46±0.056)?
The average tumor mass was 0.21 ± 0.035 g.

And the “mean reduction of tumor volume” value ([1]; 100 mg/kg daily, vs control)?
Its value is 98%.

What about the “reduction of PCNA expression” value (HT-29 colon cancer cells; 0.5×IC50 (25 nM)) of the same compound?
The value was 18.2±1.5%.

What about the “reduction of PCNA expression” value (HT-29 colon cancer cells; 1×IC50 (50 nM)) of the same compound?
Its value is 50.3±3.2%.

And the “reduction of PCNA expression” value (HT-29 colon cancer cells; 2×IC50 (100 nM))?
The value was 77.4±2.2%.

What about the “COX-2 expression in paw exudates induced by carrageenan” value (COX-2) of the same compound?
The value was “inhibited induction; also recorded: dose-dependently inhibited”.

And the mean tumor volume ([2]; 100 mg/kg daily gavage, end of study, control 1886±200)?
Its mean tumor volume is 35±9 mm^3.

What about the “reduction of tumor mass” value [2, 3] of the same compound?
The value was 91%.

What about the average tumor mass ([2]; 100 mg/kg daily, day 27, control 1.2±0.33) of the same compound?
The average tumor mass was 0.11 ± 0.058 g.

What about the “mean reduction of tumor volume” value ([2]; 100 mg/kg daily, vs control) of the same compound?
Its value is 98%.

What about the LDH release (HT-29 cells; 4-times its IC50, 24 hours) of the same compound?
Its LDH release is “less than 10%”.

What about the LDH release (HT-29 cells; 4-times its IC50, shorter durations (2, 4, 6, 8 hours)) of the same compound?
Its LDH release is 1-5%.

And the LDH release (HT-29 cells; at its IC50, shorter durations (2, 4, 6, 8 hours))?
The LDH release was 0.5-4%.
